One test addresses T1, ROCK1 kinase (Homo sapiens, UniProt Q13464).
T1 construct: purchased Invitrogen
In words: In vitro evaluation of ROCK1 kinase selectivity (HTRF KinEASE-STK time-resolved fluorometric assay). It counts as biochemical. The conditions noted are these: ROCK1 kinase 0.4 ng/μL, ATP 3.53 μM. As to the method: ROCK1 activity was detected using a 96-well (Cisbio) time-resolved fluorometric assay. The assay for ROCK1 was performed in the following assay buffer: 5 mM MgCl2 (Sigma), 1 mM DTT (Sigma) and 1× kinase buffer. The kinase buffer was used for dilution. 7.5 μL of ROCK1 kinase (Invitrogen) was added to a 96-well microplate to reach a final concentration of 0.4 ng/μL, and then 0.25 μL of test compound (DMSO content: 1%) was added. The mixture was incubated at room temperature for 0.5 h. To start the reaction, the kinase buffer was also used to mix ATP (Aladdin) and the substrate STK-substrate 2-biotin. 7.5 μL of the mixed solution was added to the microplate to reach final concentrations of 3.53 μM and 1 μM. The resulting mixture was incubated at room temperature for 2 h. 5 mL of detection buffer was mixed with STK antibody-Cryptate, and then an appropriate volume of the mixture was mixed with an equal volume of streptavidin-XL665. 10 μL of the resulting mixture was added to stop the reaction. After further incubation for about 1 h, the microplate was read on a Molecular Devices SpectraMax i3x multifunctional microplate reader. The kinase buffer, the STK-substrate 2-biotin, the detection buffer, the STK antibody-Cryptate, and the streptavidin-XL665 were all from HTRF KinEASE-STK kit (Cisbio, 1000 tests, 61GSTXLA).
On the technique in general: Time-resolved FRET reads energy transfer from a long-lived donor to a nearby acceptor.

For a further test, the target named is T2, ROCK2 kinase (Homo sapiens, UniProt O75116).
T2 construct: purchased Invitrogen PV3759
In words: In vitro evaluation of ROCK2 kinase activity (HTRF KinEASE-STK time-resolved fluorometric assay). It counts as biochemical. The note with it: ROCK2 kinase 0.4 ng/μL, ATP 6.739 μM. As to the method:
ROCK2 activity screening. ROCK2 activity was detected using a 96-well (Cisbio) time-resolved fluorometric assay. The assay for ROCK2 was performed in the following assay buffer: 5 mM MgCl2 (Sigma), 1 mM DTT (Sigma) and 1× kinase buffer. The kinase buffer was used for dilution. 7.5 μL of ROCK2 kinase (Invitrogen, PV3759) was added to a 96-well microplate to reach a final concentration of 0.4 ng/μL, and then 0.25 μL of test compound (DMSO content: 1% (volume fraction)) was added. The mixture was incubated at room temperature for 0.5 h. To start the reaction, the kinase buffer was used to mix ATP (Aladdin) and the substrate STK-substrate 2-biotin. 7.5 μL of the mixed solution was added to the microplate to reach final concentrations of 6.739 μM and 1 μM. The resulting mixture was incubated at room temperature for 2 h. 5 mL of detection buffer was mixed with STK antibody-Cryptate, and then an appropriate volume of the mixture was mixed with an equal volume of streptavidin-XL665. 10 μL of the resulting mixture was added to the microplate to stop the reaction. After further incubation for about 1 h, the microplate was read on a Molecular Devices SpectraMax i3x multifunctional microplate reader. The kinase buffer, the STK-substrate 2-biotin, the detection buffer, the STK antibody-Cryptate, and the streptavidin-XL665 were all from HTRF KinEASE-STK kit (Cisbio, 1000 tests, 61GSTXLA).

Experimental findings from patent US20230257376A1, “ROCK INHIBITOR, AND PREPARATION METHOD THEREFOR AND USE THEREOF” (WUHAN LL SCIENCE AND TECHNOLOGY DEVELOPMENT CO., LTD., priority 2020, published 2023) are described below.

For orientation: IC50 means the concentration that gives 50% inhibition.

T2 sequence (O75116 whole entry): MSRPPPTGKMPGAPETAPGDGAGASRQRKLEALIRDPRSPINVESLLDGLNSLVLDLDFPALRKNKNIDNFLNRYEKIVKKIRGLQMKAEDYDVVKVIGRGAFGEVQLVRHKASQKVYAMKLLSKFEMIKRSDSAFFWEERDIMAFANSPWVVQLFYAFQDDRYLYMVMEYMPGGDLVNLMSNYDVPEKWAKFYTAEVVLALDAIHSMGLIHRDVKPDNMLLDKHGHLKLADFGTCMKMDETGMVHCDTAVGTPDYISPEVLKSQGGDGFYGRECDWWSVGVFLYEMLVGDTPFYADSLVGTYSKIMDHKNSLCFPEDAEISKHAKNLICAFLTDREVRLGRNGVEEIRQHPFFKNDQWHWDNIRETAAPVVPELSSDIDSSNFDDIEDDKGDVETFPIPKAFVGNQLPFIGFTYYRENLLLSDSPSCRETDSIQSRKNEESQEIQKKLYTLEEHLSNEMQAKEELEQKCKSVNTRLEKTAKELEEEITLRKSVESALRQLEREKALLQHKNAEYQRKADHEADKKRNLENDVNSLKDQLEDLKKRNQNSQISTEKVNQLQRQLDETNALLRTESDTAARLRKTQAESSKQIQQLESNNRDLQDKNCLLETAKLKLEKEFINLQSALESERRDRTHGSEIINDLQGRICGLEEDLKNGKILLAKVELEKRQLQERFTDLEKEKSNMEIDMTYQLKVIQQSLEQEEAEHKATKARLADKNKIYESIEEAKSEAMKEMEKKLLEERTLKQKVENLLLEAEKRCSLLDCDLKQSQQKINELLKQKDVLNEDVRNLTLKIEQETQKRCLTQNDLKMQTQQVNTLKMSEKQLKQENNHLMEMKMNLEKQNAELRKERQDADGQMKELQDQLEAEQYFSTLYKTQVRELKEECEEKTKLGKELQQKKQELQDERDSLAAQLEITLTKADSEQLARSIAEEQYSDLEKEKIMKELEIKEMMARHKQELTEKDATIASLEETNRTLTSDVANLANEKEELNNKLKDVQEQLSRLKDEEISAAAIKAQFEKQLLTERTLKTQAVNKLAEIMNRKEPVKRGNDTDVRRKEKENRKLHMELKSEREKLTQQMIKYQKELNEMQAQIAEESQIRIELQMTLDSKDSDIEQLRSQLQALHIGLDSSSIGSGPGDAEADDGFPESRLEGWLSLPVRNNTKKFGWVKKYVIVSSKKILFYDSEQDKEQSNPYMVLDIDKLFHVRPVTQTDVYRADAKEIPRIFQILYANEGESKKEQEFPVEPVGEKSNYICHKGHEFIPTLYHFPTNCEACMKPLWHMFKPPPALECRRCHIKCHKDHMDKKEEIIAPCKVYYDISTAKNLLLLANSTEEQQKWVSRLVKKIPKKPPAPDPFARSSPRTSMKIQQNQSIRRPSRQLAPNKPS
T1 sequence (Q13464 whole entry): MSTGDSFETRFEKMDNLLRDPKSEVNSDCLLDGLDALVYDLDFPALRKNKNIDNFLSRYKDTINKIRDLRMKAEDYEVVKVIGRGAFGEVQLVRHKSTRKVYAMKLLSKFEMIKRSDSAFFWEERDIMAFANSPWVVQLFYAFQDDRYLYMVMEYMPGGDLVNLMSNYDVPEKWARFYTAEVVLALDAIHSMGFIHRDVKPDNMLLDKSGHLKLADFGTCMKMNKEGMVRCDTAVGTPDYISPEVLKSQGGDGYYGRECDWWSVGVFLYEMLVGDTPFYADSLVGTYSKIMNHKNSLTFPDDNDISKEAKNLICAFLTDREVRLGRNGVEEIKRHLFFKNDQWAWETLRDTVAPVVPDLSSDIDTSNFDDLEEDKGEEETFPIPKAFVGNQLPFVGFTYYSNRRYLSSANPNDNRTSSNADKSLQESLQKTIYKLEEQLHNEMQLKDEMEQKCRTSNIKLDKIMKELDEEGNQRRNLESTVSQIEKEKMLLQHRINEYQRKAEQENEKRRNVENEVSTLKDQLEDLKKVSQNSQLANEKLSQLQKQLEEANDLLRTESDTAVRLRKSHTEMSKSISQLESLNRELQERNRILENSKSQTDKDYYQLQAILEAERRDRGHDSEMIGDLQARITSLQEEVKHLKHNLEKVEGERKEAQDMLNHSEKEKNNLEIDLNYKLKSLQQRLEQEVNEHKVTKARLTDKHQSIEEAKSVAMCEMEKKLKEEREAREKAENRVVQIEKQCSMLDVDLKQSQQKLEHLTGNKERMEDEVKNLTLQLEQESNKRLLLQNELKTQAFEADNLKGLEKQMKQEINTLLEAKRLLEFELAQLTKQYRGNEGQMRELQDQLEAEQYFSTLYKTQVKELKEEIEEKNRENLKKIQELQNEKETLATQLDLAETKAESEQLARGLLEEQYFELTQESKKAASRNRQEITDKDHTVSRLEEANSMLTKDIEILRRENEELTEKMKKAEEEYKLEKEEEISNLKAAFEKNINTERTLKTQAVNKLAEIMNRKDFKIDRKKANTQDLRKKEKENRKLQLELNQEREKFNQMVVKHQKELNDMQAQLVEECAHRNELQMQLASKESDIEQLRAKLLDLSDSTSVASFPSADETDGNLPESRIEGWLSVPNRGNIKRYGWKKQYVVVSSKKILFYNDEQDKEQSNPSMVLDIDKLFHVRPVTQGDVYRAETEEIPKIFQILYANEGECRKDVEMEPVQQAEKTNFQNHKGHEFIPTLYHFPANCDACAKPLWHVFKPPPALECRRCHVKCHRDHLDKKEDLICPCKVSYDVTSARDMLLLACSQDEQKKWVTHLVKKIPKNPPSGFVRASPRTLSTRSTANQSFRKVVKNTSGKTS

`Cn1c(C(=O)Nc2cnccc2F)cc2c1CN(c1nccc(Nc3ccc(-c4cn[nH]c4)cc3)n1)CC2` [Compound L023]: the IC50 was 0.5 to 4.5 µM at ROCK1 kinase and 50 to 500 nM at ROCK2 kinase. For `Cn1c(C(=O)N2CC(C(F)F)C2)cc2c1CN(c1ncc(F)c(Nc3ccc(-c4c[nH]nc4F)cc3)n1)CC2` [Compound L039, (3-(difluoromethyl)azetidin-1-yl)(6-(5-fluoro-4-((4-(3-fluoro-1H-pyrazol-4-yl)phenyl)amino)pyrimidin-2-yl)-1-methyl-4,5,6,7-tetrahydro-1H-pyrrolo[2,3-c]pyridin-2-yl)methanone] the same measures were more than 4.5 µM and 50 to 500 nM.

`CN(C(=O)c1cc2c(n1C)CN(c1nccc(Nc3ccc(-c4cn[nH]c4)cc3)n1)CC2)C1CC(F)(F)C1` [Compound L014, 6-(4-((4-(1H-pyrazol-4-yl)phenyl)amino)pyrimidin-2-yl)-N-(3,3-difluorocyclobutyl)-N,1-dimethyl-4,5,6,7-tetrahydro-1H-pyrrolo[2,3-c]pyridine-2-carboxamide] yielded an IC50 on ROCK2 kinase of more than 4500 nM.

With `Cn1c(C(=O)N2CC(F)(F)C2)cc2c1CN(c1ncc(C#N)c(Nc3ccc(-c4cn[nH]c4)cc3)n1)CC2` [Compound L034, 4-((4-(1H-pyrazol-4-yl)phenyl)amino)-2-(2-(3,3-difluoroazetidin-1-carbonyl)-1-methyl-4,5-dihydro-1H-pyrrolo[2,3-c]pyridin-6(7H)-yl)pyrimidine-5-carbonitrile], the values for the IC50 against ROCK1 kinase and against ROCK2 kinase were more than 4.5 µM and not above 50 nM, respectively. For `Cn1c(C(=O)N2CC(F)(F)C2)cc2c1CN(c1nccc(Nc3ccc(-c4c[nH]nc4F)c(F)c3)n1)CC2` [Compound L016, (3,3-difluoroazetidin-1-yl)(6-(4-((3-fluoro-4-(3-fluoro-1H-pyrazol-4-yl)phenyl)amino)pyrimidin-2-yl)-1-methyl-4,5,6,7-tetrahydro-1H-pyrrolo[2,3-c]pyridin-2-yl)methanone], in that order: more than 4.5 µM and not above 50 nM.

The molecule `O=C(O)c1cc2n(c1)CCN(c1nccc(Nc3ccc(-c4cn[nH]c4)cc3)n1)C2` [Compound L013, 2-(4-((4-(1H-pyrazol-4-yl)phenyl)amino)pyrimidin-2-yl)-1,2,3,4-tetrahydropyrrolo[1,2-a]pyrazine-7-carboxylic Acid] came in with a 50% inhibitory concentration (IC50) against ROCK2 kinase of more than 4500 nM. As for `O=C(c1ccc2c(c1)CN(c1nccc(Nc3ccc(-c4cn[nH]c4)cc3)n1)CC2)N1CC(F)(F)C1` [Compound L028, (2-(4-((4-(1H-pyrazol-4-yl)phenyl)amino)pyrimidin-2-yl)-1,2,3,4-tetrahydroisoquinolin-7-yl)(3,3-difluoroazetidin-1-yl)methanone], the IC50 against ROCK1 kinase was more than 4.5 µM; on ROCK2 kinase, 500 to 4500 nM.

In the case of `Cn1c(C(=O)O)cc2c1CN(c1nccc(Nc3ccc(-c4cn[nH]c4)cc3)n1)CC2` [Compound L001, 6-(4-((4-(1H-pyrazol-4-yl)phenyl)amino)pyrimidin-2-yl)-1-methyl-4,5,6,7-tetrahydro-1H-pyrrolo[2,3-c]pyridine-2-carboxylic Acid], at ROCK2 kinase, the IC50 was more than 4500 nM. The same measure, in the same setting: next, `O=C(O)c1cn2c(n1)CN(c1nccc(Nc3ccc(-c4cn[nH]c4)cc3)n1)CC2` [Compound L002, 7-(4-((4-(1H-pyrazol-4-yl)phenyl)amino)pyrimidin-2-yl)-5,6,7,8-tetrahydroimidazo[1,2-a]pyrazine-2-carboxylic Acid]: more than 4500 nM. Regarding `CC(C)c1nc(Nc2ccc(-c3cn[nH]c3)cc2)nc(N2CCc3cc(C(=O)N4CC(F)(F)C4)n(C)c3C2)n1` [Compound L049], the half-inhibitory concentration (IC50) was more than 4.5 µM on ROCK1 kinase and 50 to 500 nM against ROCK2 kinase. With `O=C(NC1CC(F)(F)C1)c1cn2c(n1)CN(c1nccc(Nc3ccc(-c4cn[nH]c4)cc3)n1)CC2` [Compound L008, 7-(4-((4-(1H-pyrazol-4-yl)phenyl)amino)pyrimidin-2-yl)-N-(3,3-difluorocyclobutyl)-5,6,7,8-tetrahydroimidazo[1,2-a]pyrazine-2-carboxamide], the IC50 against ROCK1 kinase is more than 4.5 µM; on ROCK2 kinase, not above 50 nM. For the molecule `O=C(c1ccc2c(c1)CCN(c1nccc(Nc3ccc(-c4cn[nH]c4)cc3)n1)C2)N1CC(F)(F)C1` [Compound L029], the IC50 at ROCK1 kinase is more than 4.5 µM; against ROCK2 kinase, 500 to 4500 nM. For `O=C(c1cn2c(n1)CN(c1nccc(Nc3ccc(-c4cn[nH]c4)cc3)n1)CC2)N1CC(F)(F)C1` [Compound L015], in that order: more than 4.5 µM and 50 to 500 nM. For `Cn1c(C(=O)NC2CC(F)(F)C2)cc2c1CN(c1nccc(Nc3ccc(-c4cn[nH]c4)cc3)n1)CC2` [Compound L004, 6-(4-((4-(1H-pyrazol-4-yl)phenyl)amino)pyrimidin-2-yl)-N-(3,3-difluorocyclobutyl)-1-methyl-4,5,6,7-tetrahydro-1H-pyrrolo[2,3-c]pyridine-2-carboxamide], in that order: 0.5 to 4.5 µM and 50 to 500 nM. For the molecule `Cn1c(C(=O)N2CC(C#N)C2)cc2c1CN(c1nccc(Nc3ccc(-c4cn[nH]c4)cc3)n1)CC2` [Compound L010, 1-(6-(4-((4-(1H-pyrazol-4-yl)phenyl)amino)pyrimidin-2-yl)-1-methyl-4,5,6,7-tetrahydro-1H-pyrrolo[2,3-c]pyridin-2-carbonyl)azetidine-3-carbonitrile], the figures for the IC50 against ROCK1 kinase and against ROCK2 kinase were more than 4.5 µM and not above 50 nM, respectively.

With `O=C(c1ccc2c(cnn2-c2nccc(Nc3ccc(-c4cn[nH]c4)cc3)n2)c1)N1CC(F)(F)C1` [Compound L055], the results for the IC50 against ROCK1 kinase and against ROCK2 kinase were more than 4.5 µM and 500 to 4500 nM, respectively.

On ROCK2 kinase, `CC(C)NC(=O)c1cc2c(n1C)CN(c1nccc(Nc3ccc(-c4cn[nH]c4)cc3)n1)CC2` [Compound L009, 6-(4-((4-(1H-pyrazol-4-yl)phenyl)amino)pyrimidin-2-yl)-N-isopropyl-1-methyl-4,5,6,7-tetrahydro-1H-pyrrolo[2,3-c]pyridine-2-carboxamide] displayed an IC50 of 500 to 4500 nM. Consider `Cn1c(C(=O)N2CC(F)(F)C2)cc2c1C(C)(C)N(c1nccc(Nc3ccc(-c4cn[nH]c4)cc3)n1)CC2` [Compound L018], for which the IC50 against ROCK1 kinase is more than 4.5 µM; on ROCK2 kinase it was 50 to 500 nM. Regarding `Cn1c(C(=O)N2C[C@@H](O)[C@@H](F)C2)cc2c1CN(c1nccc(Nc3ccc(-c4cn[nH]c4)cc3)n1)CC2` [Compound L024], the IC50 on ROCK1 kinase is 0.5 to 4.5 µM; at ROCK2 kinase, not above 50 nM. The molecule `O=C(c1cc2n(c1)CCN(c1nccc(Nc3ccc(-c4cn[nH]c4)cc3)n1)C2)N1CC(F)(F)C1` [Compound L025, (2-(4-((4-(1H-pyrazol-4-yl)phenyl)amino)pyrimidin-2-yl)-1,2,3,4-tetrahydropyrrolo[1,2-a]pyrazin-7-yl)(3,3-difluoroazetidin-1-yl)methanone] came in with an IC50 against ROCK2 kinase of more than 4500 nM.

For `O=C(c1cc2n(n1)CCN(c1nccc(Nc3ccc(-c4cn[nH]c4)cc3)n1)C2)N1CC(F)(F)C1` [Compound L003, (5-(4-((4-(1H-pyrazol-4-yl)phenyl)amino)pyrimidin-2-yl)-4,5,6,7-tetrahydropyrazolo[1,5-a]pyrazin-2-yl)(3,3-difluoroazetidin-1-yl)methanone], the IC50 against ROCK2 kinase was more than 4500 nM.

As to `CN(C(=O)c1cn2c(n1)CN(c1nccc(Nc3ccc(-c4cn[nH]c4)cc3)n1)CC2)C1CC(F)(F)C1` [Compound L022], the IC50 against ROCK2 kinase fell in the range of 500 to 4500 nM. On the same count and under the same terms, for `Cn1c(C(=O)N2CC(F)(F)C2)cc2c1CN(c1nccc(Nc3ccc(Oc4ncccc4C(N)=O)c(F)c3)n1)CC2` [Compound L007, 2-(4-((2-(2-(3,3-difluoroazetidin-1-carbonyl)-1-methyl-1,4,5,7-tetrahydro-6H-pyrrolo[2,3-c]pyridin-6-yl)pyrimidin-4-yl)amino)-2-fluorophenoxy)nicotinamide] the value was 500 to 4500 nM; for `O=C(c1ccc2nn(-c3nccc(Nc4ccc(-c5cn[nH]c5)cc4)n3)cc2c1)N1CC(F)(F)C1` [Compound L011, (2-(4-((4-(1H-pyrazol-4-yl)phenyl)amino)pyrimidin-2-yl)-2H-indazol-5-yl)(3,3-difluoroazetidin-1-yl)methanone], 500 to 4500 nM.
